90 molecules from a melting point compilation (Tetko et al.; mined from patent text by program, amines drawn as free bases though some values may be those of a salt) can be followed below.

Each structure is given as a SMILES string.

For orientation: melting point means the temperature, or range, at which the solid turns liquid.

On to `O=c1c(-c2cccc(C(F)(F)F)c2)coc2cc(O)c(O)cc12`, for which the melting point is 274 to 275 °C. The result for `COC(=O)N1CCc2ccc(C(=O)CCC3CCN(C(=O)c4ccccc4)CC3)cc2CC1` reads 120 to 123 °C; that for `CCOc1c(OC)cccc1C(=O)Nc1ccc(C(=O)OC)cc1C(=O)OC`, 113 to 115 °C. For `CN1C(=O)Cc2ccc(F)cc21`, the melting point lay within 100 to 101 °C. The figure for `FC(F)c1nc2ccccc2n1-c1nc(Nc2cccnn2)nc(N2CCOCC2)n1` is 271 to 273 °C; for `CCC(CC)Nc1nc(-c2cc(OC)c(OC)c(OC)c2)nc2sc(C#N)c(C)c12` it is 226 to 228 °C. Molecule `c1ccc2c(CCCc3nccc4ccccc34)nccc2c1` gave a melting point of 96 to 97 °C. The figure for `CCc1cc(C=O)ccc1N=C1SCC2(CCCC2)N1C1CCCC1` is 104 to 105 °C; for `CC1CC(=NNc2ccccc2)c2ncc(C(=O)O)c(=O)n2C1` (stereo not given) it is 255 to 256 °C; for `COC(=O)/C=C/c1ccc(N)nc1` it is 173 to 175 °C.

As to `COc1ccc(S(=O)(=O)N2CCc3cccc(-c4ccc(C=CC(=O)NO)cc4)c32)cc1`, the melting point fell in the range of 200 to 201 °C. The result for `O=C(NC(=O)c1ccccc1Cl)Nc1cc(C(F)(F)F)c(Br)cc1Br` reads 191 °C; that for `CCc1nc2c([C@H](O)CO)cccc2cc1C`, 66 °C; that for `O=C(NO)c1ccc(CNC(=O)c2[nH]c(-c3cccs3)cc2-c2ccc(F)cc2)cc1`, 214 to 216 °C. The figure for `Cc1cc(C)c2nc(NCC3COC(C)(C)O3)n(Cc3nc(C)ccc3O)c2c1` (stereo not given) is 225 °C; for `Cc1ccc(S(=O)(=O)Nc2ccc(F)cc2[N+](=O)[O-])cc1` it is 118 °C; for `c1cc2cc(-c3cn([C@H]4CN5CCC4CC5)nn3)ccc2o1` it is 178 °C. The result for `COc1cc2c(cc1OC)-c1cc(=Nc3c(C)cc(C)cc3C)n(C)c(=O)n1CC2` reads 151 to 152 °C; that for `COc1ccc(-c2ccc3c(C(=O)c4ccn5c4C(C)(C)SC5c4cccnc4)c[nH]c3c2)cc1` (stereo not given), 236 to 239 °C. As to `O=C(Nc1ccc(O)cc1O)c1cc(Cl)c(O)c(Cl)c1`, the melting point lay in the range of 235 to 237 °C. For `COc1cc(C(C)O)c(F)cc1Cl` (stereo not given), the melting point fell in the range of 68.5 to 69.5 °C. `COc1ccc(Cn2ncnc2CO)cc1` displayed a melting point of 95 to 100 °C. Regarding `COc1ccc(C2(O)CCCCC2)cn1`, the melting point is 74 to 75 °C. Consider `N#CCN1C(=O)C2(COc3cc4c(cc32)OCO4)c2ccccc21` (stereo not given), for which the melting point was in the range of 170 to 172 °C. The molecule `CC(O)c1cccc(Oc2ncccc2OCCCc2ccncc2)c1` (stereo not given) gave a melting point of 93 to 97 °C. The result for `CCOc1cc2c(cc1OC)C(=O)CC(C)(C)O2` reads 120 to 122 °C; that for `COc1cc2cc(C(=O)Nc3cc(OCc4ccccc4)c4ccccc4c3CCOC(C)=O)[nH]c2c(OC)c1OC`, 55 to 65 °C.

For `NC(=O)N1CC(Oc2ccccn2)C1`, the melting point was in the range of 133 to 137 °C. The result for `Nc1ccc(C(=O)N2Cc3cccn3-c3ccccc32)cc1` reads 225 to 228 °C; that for `CN1CC[C@@H]2CC(=O)c3cc4c(cc3[C@@H]2C1)OCO4` (relative stereo), > 250 °C. `CCOCCn1cc(C2CCN(CCOc3ccccc3C(=O)O)CC2)c2cccnc21` displayed a melting point of 137 to 140 °C.

With `Cc1[nH]c(C(=O)SCC(=O)O)nc1-c1cc(C(C)(C)C)c(O)c(C(C)(C)C)c1`, the melting point is 252 to 254 °C.

The molecule `CON(C(=O)c1cn(C)nc1C(F)F)C(C)C1CCC(C)=CC1(C)C` (stereo not given) registered a melting point of 95 to 105 °C. The figure for `CCc1nnc2c(N(CC)CC)nc3cc(Cl)c(Cl)cc3n12` is 147 to 149 °C; for `CN1C(=O)Cc2cccc(Cl)c21` it is 111 to 113 °C; for `NC1=C2C=NN=C2N(c2ccc(Cl)c(Cl)c2)CN1c1ccccc1` it is 306 to 307 °C.

In turn, `OC(C=CCN1CCC(O)(c2ccc(Cl)cc2)CC1)c1ccc(F)cc1` (stereo not given) registered a melting point of 126 to 127 °C. In the case of `O=S(c1c(C(F)(F)F)[nH]c2ccccc12)C(F)(F)F` (stereo not given), the melting point was 183 to 185 °C.

`COc1ccc(-n2c(-c3ccccn3)nc(SC)c(C#N)c2=O)cc1` showed a melting point of 246 to 253 °C.

As to `COC(=O)c1ccc(-c2nc(-c3ccccc3)n(C)n2)cc1`, the melting point fell in the range of 167 to 168 °C. The figure for `COc1ccccc1N1CCN(CCOc2ccc(-c3cn4ccccc4n3)cc2)CC1` is 151 to 153 °C; for `CC(=O)OC1(C)CN(C(=O)Nc2ccc(C(F)(F)F)cc2)N=C1c1ccc(Cl)cc1` (stereo not given) it is 92 to 96 °C; for `c1ccc(-c2nnc3n2-c2ccccc2Cn2cccc2-3)nc1` it is 255 to 257 °C. In turn, `CCCC(N)CC(=O)O` (stereo not given) came in with a melting point of 203 °C.

Regarding `O=C(Nc1ccc(Cl)nc1)c1ccc(-n2ccnc2)c(F)c1`, the melting point was 210 to 211 °C. The figure for `O=S(=O)(Oc1cc(I)c(I)cc1OS(=O)(=O)C(F)(F)F)C(F)(F)F` is 46.5 to 47.7 °C. As to `CC(=O)c1ccc(-n2c(-c3sc(NC(=O)c4ccc(C)cc4)nc3-c3ccccc3)nc3ccccc3c2=O)cc1`, the melting point was 266 to 267 °C. The figure for `O=C(O)CC[C@H](NC(=O)Oc1ccc(N(CCCl)CCCl)cc1)C(=O)O` is 87 to 89 °C; for `CCCCCCOc1cc(-c2ccc3cc4c(cc3c2)C(C)(C)CCC4(C)C)ccc1C(=O)OC` it is 102 to 104 °C; for `CCCCNc1ncc(C(=O)c2ccc(N)c([N+](=O)[O-])c2)s1` it is 198 to 203 °C. The result for `CNC(=O)C1=CC(CF)(CF)Oc2ccc(C#N)cc21` reads 206 to 207 °C.

`CNC(C(=O)NC(N)=O)C(=S)c1cccc2c(C(F)(F)F)c(OC)ccc12` (stereo not given): the melting point lay in the range of 203 to 204 °C. The figure for `CCCC1=C(C(=O)OCC)C(c2cccc(C#N)c2OC)c2c[nH]nc2N1` (stereo not given) is 220 to 222 °C; for `CCOC(=O)c1nc(NC)sc1C(=O)CBr` it is 130 to 132 °C. The figure for `COc1ccc(-c2cc3c(OC)cc(OC)cc3nc2OCC#N)cc1` is 149 to 150 °C; for `Cc1ncc(C#N)c(Nc2ccc3[nH]ccc3c2C)c1-c1cc2ccccc2o1` it is 154 to 155 °C; for `O=S(=O)(c1ccc(F)cc1)N1CCCC1c1ccccc1F` (racemic) it is 108 °C. The figure for `CCCCc1nc2cccc(C)c2c(=O)n1C1CCC(=O)NC1=O` (stereo not given) is 190 to 192 °C.

Regarding `CCC(C)NC(=O)n1nc(Oc2c(Cl)cc(C(F)(F)F)cc2Cl)cc1C` (stereo not given), the melting point lay within 73 to 75 °C.

The molecule `O=C1NCc2ccccc2N1C1CCN(Cc2ccccc2)CC1` returned a melting point of 120 °C. The result for `Cc1ccccc1NC(=O)C=CC=CC1(F)CC1c1ccc(Br)c(Br)c1` (stereo not given) reads 174 to 176 °C; that for `CN(C)CCCn1nnc(-c2ccc3c(c2)S(=O)(=O)c2ccccc2C3=O)n1`, 141 to 142 °C; that for `COC(=O)c1cc(C(C)Br)cnc1C1=NC(C)(C(C)C)C(=O)N1` (stereo not given), 123 to 126 °C. The molecule `Clc1nc(-c2nc3ccccc3[nH]2)[nH]c1Cl` gave a melting point of 300 °C. Regarding `CC(C)(C)c1cc(-n2nc3ccc(Cl)cc3n2)c(O)c(C(C)(C)c2ccc(Cl)cc2)c1`, the melting point was 130 to 131 °C. The figure for `CCN(CC)c1nn2ccccc2c1C(C)=O` is 59.5 to 60 °C; for `CCCCCCCCOc1ccc(C(=O)Oc2ccc(C3CCC(O)CC3)cc2)cc1` (stereo not given) it is 111 to 112 °C. For the molecule `CCn1c(C)c(C(C)=O)c(N=Cc2ccccc2)c1-c1ccccc1`, the melting point lay within 139 to 141 °C. The result for `Fc1ccc(Cn2c(NC3CCN(CCc4cn5ccsc5n4)CC3)nc3ccccc32)cc1` reads 223 °C. The result for `CC(=O)NC[C@H]1CN(c2ccc(N3CCC4(CC3)CC4(C#N)C#N)c(F)c2)C(=O)O1` reads 188 to 190 °C.

For `CC(C)[C@H](O)[C@@H](CCCCOc1ccc(Cl)cc1Cl)n1nc[nH]c1=S` (racemic), the melting point came to 118 °C.

For `O=C(CCc1ccc(O)cc1)OCCC(c1ccccc1)(c1ccccc1)c1ccccc1`, the melting point fell in the range of 105 to 107 °C.

Turning to `CCCCCCCCCCCCC(C(=O)NO)S(=O)(=O)c1ccc(OC)cc1` (stereo not given), the melting point came out at 114 °C.

As to `CCOC(=O)/C=C/c1ccc(N2CCC3(CC2)OCCO3)cc1`, the melting point lay within 115 to 116 °C. The molecule `CC(C)Sc1cc2c(cc1Cl)N=C(C(Cl)Cl)NS2(=O)=O` showed a melting point of 287 to 289 °C.

`CSC1C(=O)Nc2c(Oc3cccc4ccccc34)cccc21` (stereo not given) gave a melting point of 134 to 139 °C. The figure for `O=C(NC1CC2CCC1C2)n1cc(F)c(=O)[nH]c1=O` (stereo not given) is 252 to 255 °C; for `CC1C(c2ccccc2)NC(=S)N1O` (stereo not given) it is 202 °C. The result for `CN1CC(CO)Cc2ccc(NC(=O)/C=C/c3ccc(C(F)(F)F)cc3)cc21` (stereo not given) reads 167 to 169 °C; that for `CC(C)(C)[C@H]1Cn2c(nc3c(C4OCCO4)cccc32)-c2ccccc2O1`, 150 to 152 °C. In the case of `c1ccc2c(c1)NCCc1nccn1-2`, the melting point lay in the range of 119 to 122 °C. Take `O=C(OC(C(F)(F)F)C(F)(F)F)c1c2ccccc2nc2ccccc12`: the melting point is 143 to 145 °C. The figure for `O=C(O)c1cccc(-c2cc(-c3ccccc3)on2)c1` is 250 to 251 °C. The molecule `COC(=O)c1ccc(CBr)c(SC(=O)c2ccc(C(C)(C)C)cc2)c1` registered a melting point of 152 °C.

Molecule `CN(c1ccccc1)c1nc(N)nc2nc[nH]c12` registered a melting point of 147 to 152 °C. `Cn1nc(-c2cccc(C(F)(F)F)c2)c(Cl)c1C(=O)O` gave a melting point of 180 to 183 °C. `O=S(=O)(Nc1ccccc1)c1ccc(NC(=S)Nc2ccccc2)cc1` showed a melting point of 160 to 162 °C.

Molecule `COc1ccc(S(=O)(=O)Nc2cccnc2Nc2ccc(OC(=O)N(C)C)cc2)cc1` had a melting point of 202 to 203 °C.

Molecule `O=[N+]([O-])c1ccc(CCN2CCN(c3ccc([N+](=O)[O-])cc3)CC2)cc1` registered a melting point of 143 to 145 °C. The figure for `CCCCOc1ccc2c(c1)C(NS(C)(=O)=O)CC(C)(C)O2` (stereo not given) is 123 to 127 °C.
